# Laboratory results as given in paper PMC11801715, “Activating PKC-ε induces HIV expression with improved tolerability” (PLOS Pathogens, 2025).
# Legend:
# [1] = tested on: platelets (CD62P+) and CD4+ T cells (CD69+) in whole blood; test: In vitro whole blood platelet and CD4+ T-cell activation assay; assay type: cell-based, human; details: whole blood from healthy donors; platelets to CD4+ T cells
# Experimental: We developed a novel human whole blood assay to determine whether other PKC agonists also activate platelets at the same concentrations that are required to activate CD4^+ T cells. Platelet activation was assessed by CD62P (P-selectin), which traffics to the cell surface upon activation and α-granule release. CD4^+ T-cell activation was assessed by CD69 upregulation (Fig 7A).
# Whole blood was drawn into sodium citrate tubes using a 21-gauge needle. To prevent potential interference from tissue thromboplastin released during venipuncture, which could affect the accuracy of coagulation testing, the first 2 mL of blood drawn was discarded. PKC agonist molecules were dispensed in a dilution series into 80 μL of blood per well in a flat-bottom 96-well plate and mixed gently. Care was taken not to introduce any mechanical stress-related activation of platelets. […] The remaining 72 μL of blood in the first plate was incubated for 1 additional hour and stained with anti-human CD3 (UCHT1), CD4 (SK3), and CD69 (FN50) (30 minutes in the dark). Red blood cell lysis and fixing was done using BD lyse/fix solution. Stained cells were acquired on BD LSR Fortessa II after washing. […] EC50 values for platelet and CD4 T-cell activation for each agonist was obtained by nonlinear regression curve fit using GraphPad Prism version 9.3.0.
# [2] = tested on: latent HIV in total CD4+ T cells; test: microbe, parasite or virus in culture; assay type: cell-based, HIV-1; details: Human immunodeficiency virus 1, CD4+ T, read-out: EC50, activation of HIV expression
# Experimental: Peripheral blood mononuclear cells and CD4^+ T cells used for evaluating PKC agonist and inhibitor molecules were isolated from leukopaks of selected participants as described previously. Isolated CD4^+ T cells (5×10^6 cells/well) were added to 24-well tissue culture plates in 2.5 mL of RPMI medium containing 100 nM each of elvitegravir and efavirenz. Cells were stimulated with DMSO (vehicle control) or the indicated concentrations of PKC agonist molecules. Cells were pretreated with PKC isoform inhibitors (Selleck Chemicals) for 1 hour before addition of PKC agonist at indicated concentrations and maintained at 37 °C, 5% CO2 for 3 days. Cell supernatants from each well were analyzed using the Cobas […] system for quantification of HIV-1 RNA using the HIV-1 test v2.0 kit (Roche Diagnostics).
# CD69 on CD4+ T cells = test: CD4+ T-cell activation flow cytometry (CD69); assay type: cell-based; details: Homo sapiens; CD4+ T cells from ART-suppressed people with HIV; read-out: EC50, activation of CD69 expression
# Experimental: Sixteen hours post treatment with PKC agonists, cellular activation of 100,000 CD4^+ T cells, taken from the above ex vivo HIV activation cultures, was assessed using flow cytometry. Cell surface expression of CD69 was measured on CD4^+ T cells using anti-human CD3 (UCHT1), CD4 (SK3) and CD69 (FN50) antibodies and standard flow staining methods. Stained cells were acquired on the Becton Dickinson (BD) LSR Fortessa II flow cytometer and results were analyzed using FlowJo software.
# platelet-rich plasma = test: Platelet aggregation assay (light transmittance aggregometry); assay type: cell-based, human; details: dilution series, 20 minutes
# Experimental: Given that C-232A induced DIC in rats and monkeys, we tested whether C-232A could directly induce platelet activation and downstream aggregation. […] Adenosine diphosphate, a known platelet agonist, was used as a positive control (S7A Fig).
# Aggregation of platelets was assessed using light transmittance aggregometry using standard methods.
# (A) Assay principle for platelet aggregation assay.
# PBMCs = test: Cytokine induction in vitro in PBMC culture supernatants; assay type: cell-based, human; details: 24 hours
# Experimental: Culture supernatants were analyzed for induction of several cytokines as shown in S3 Table, using a 10-plex MSD (Meso Scale Discovery) assay following manufacturer’s instructions. MSD Workbench 4.0 software was used for data analysis and 4-parameter logistic curve fit model was utilized to determine values of experimental samples from standard curves. Values for each cytokine (pg/mL) for a given concentration was calculated as the geometric mean of all triplicate values combined from all 5 donors.
smiles,measurement,setting,value
"CC(C)[C@H]1C(=O)N[C@H](CO)Cc2c[nH]c3cccc(c23)N1C [Indolactam, reference compound]",CD62P EC50/CD69 EC50 ratio Geomean,[1],2.0
"CCCCCC(=O)O[C@H]1C(C)=C[C@]23C(=O)[C@@H](C=C(CO)[C@@H](O)[C@]12O)[C@H]1[C@@H](C[C@H]3C)C1(C)C [Ingenol B, reference compound]",CD62P EC50/CD69 EC50 ratio Geomean,[1],1.8
"CCCCCCCCCCCCCC(=O)O[C@@H]1[C@@H](C)[C@@]2(O)[C@@H](C=C(CO)C[C@]3(O)C(=O)C(C)=C[C@@H]23)[C@@H]2C(C)(C)[C@]12OC(C)=O [PMA, phorbol 12-myristate 13-acetate, reference compound]",CD62P EC50/CD69 EC50 ratio Geomean,[1],1.5
"CC(=O)O[C@@]12C[C@@H](C)[C@@]3(O)[C@@H](C=C(CO)C[C@]4(O)C(=O)C(C)=C[C@@H]34)[C@@H]1C2(C)C [Prostratin, prostratin, reference compound]",EC50,[2],2.5 µM
same,EC50,CD69 on CD4+ T cells,0.28 µM
same,platelet aggregation,platelet-rich plasma,stimulated platelet aggregation
same,GM-CSF in PBMC culture supernatant,PBMCs; 625 nM,35 pg/mL
same,IFN-γ in PBMC culture supernatant,PBMCs; 625 nM,255 pg/mL
same,IL-1b in PBMC culture supernatant,PBMCs; 625 nM,57 pg/mL
same,IL-2 in PBMC culture supernatant,PBMCs; 625 nM,22 pg/mL
same,IL-4 in PBMC culture supernatant,PBMCs; 625 nM,0.7 pg/mL
same,IL-6 in PBMC culture supernatant,PBMCs; 625 nM,40 pg/mL
same,IL-8 in PBMC culture supernatant,PBMCs; 625 nM,"40,698 pg/mL"
same,IL-10 in PBMC culture supernatant,PBMCs; 625 nM,4 pg/mL
same,IL-12p70 in PBMC culture supernatant,PBMCs; 625 nM,10 pg/mL
same,TNF-α in PBMC culture supernatant,PBMCs; 625 nM,634 pg/mL
same,GM-CSF in PBMC culture supernatant,PBMCs; 2500 nM,68 pg/mL
same,IFN-γ in PBMC culture supernatant,PBMCs; 2500 nM,292 pg/mL
same,IL-1b in PBMC culture supernatant,PBMCs; 2500 nM,108 pg/mL
same,IL-2 in PBMC culture supernatant,PBMCs; 2500 nM,32 pg/mL
same,IL-4 in PBMC culture supernatant,PBMCs; 2500 nM,1.1 pg/mL
same,IL-6 in PBMC culture supernatant,PBMCs; 2500 nM,78 pg/mL
same,IL-8 in PBMC culture supernatant,PBMCs; 2500 nM,"45,930 pg/mL"
same,IL-10 in PBMC culture supernatant,PBMCs; 2500 nM,4.6 pg/mL
same,IL-12p70 in PBMC culture supernatant,PBMCs; 2500 nM,12 pg/mL
same,TNF-α in PBMC culture supernatant,PBMCs; 2500 nM,1489 pg/mL
